In patent publication US20050130989A1, “N-arylheteroaromatic products compositions containing them and use thereof” (Aventis Pharma S. A., priority 2003, published 2005):

What was measured:
HCT116 cells = experiment: Inhibition of proliferation of the human colon tumor line HCT116 ([14C]-thymidine incorporation); format: cell-based; details: Homo sapiens, HCT-116, 48 h, 48 hours at 37° C., read-out: Inhibition of HCT116 proliferation IC 50 (μm)
Procedure: The proliferation of HCT116 cells is evaluated by measuring the incorporation of [^14C]-thymidine in the following manner. The HCT 116 cells (obtained from the ATCC) are cultured in a DMEM medium (Gibco) containing 10% fetal calf serum and antibiotics (1% penicillin, 1% streptomycin). To perform the proliferation test, the cells are inoculated in cytostar 96-well microplates (Amersham), at a rate of 5000 cells per well. [^14C]-thymidine (0.1 μCi/well) and the products to be evaluated are then added. Variable concentrations of products up to 10 μm are used; the DMSO (solvent used to dissolve the products) should not exceed 0.5% in the medium. 48 hours after incubation at 37° C., the radioactivity incorporated into the cells is measured by counting the plate in a TRI-LUX counter (Wallac). The IC50 is defined as the concentration of product that reduces the radioactivity by 50% compared with an untreated control. A product whose IC50 is less than 3 μm is considered cytotoxic.

tubulin = target: T1, tubulin (Sus scrofa, UniProt P02550+P02554); experiment: Evaluation of the inhibition of tubulin polymerization (turbidimetry); format: biochemical, pig; details: tubulin 10 μm (1 mg/ml), 37° C., turbidity at 350 nm; concentration that inhibits the rate of polymerization by 50%; read-out: Inhibition of tubulin polymerization IC 50 (μm)
T1 construct: Tubulin is purified from pig brain according to published methods; from tissue; host or cells: pig brain
Procedure: Tubulin is purified from pig brain according to published methods (Shelanski et al., 1973, Proc. Natl. Acad. Sci. USA, 70, 765-768. Weingarten et al., 1975, Proc. Natl. Acad. Sci. USA, 72, 1858-1862). Briefly, the brains are ground and centrifuged in an extraction buffer. The tubulin contained in the supernatant of the extract undergoes two successive cycles of polymerization at 37° C. and depolymerization at 4° C., before being separated from the MAPs (Microtubule Associated Proteins) by chromatography on a phosphocellulose P11 column (Whatman). The tubulin thus isolated is more than 95% pure. It is stored in a buffer known as RB/2 30% glycerol, the composition of which is 50 mM MES-NaOH [2-(N-morpholino)ethanesulfonic acid], pH 6.8; 0.25 mM MgCl2; 0.5 mM EGTA; 30% glycerol (v/v), 0.2 mM GTP (guanosine-5′-triphosphate).
The polymerization of tubulin to microtubules is monitored by turbidimetry as follows: the tubulin is adjusted to a concentration of 10 μm (1 mg/ml) in RB/2 30% glycerol buffer to which 1 mM GTP and 6 mM MgCl2 are added. The polymerization is triggered by an increase in temperature from 6° C. to 37° C. in a cuvette with an optical path length of 1 cm, placed in a UVIKON 931 spectrophotometer (Kontron) equipped with a thermostatically maintained cuvette holder. The increase in the turbidity of the solution is monitored at 350 nm.
The products are dissolved at 10 mM in DMSO and added at variable concentrations (0.5 to 10 μm) to the tubulin solution before polymerization. The IC50 value is defined as the concentration of product that inhibits the rate of polymerization by 50%.

T1 sequence (P02550 whole entry): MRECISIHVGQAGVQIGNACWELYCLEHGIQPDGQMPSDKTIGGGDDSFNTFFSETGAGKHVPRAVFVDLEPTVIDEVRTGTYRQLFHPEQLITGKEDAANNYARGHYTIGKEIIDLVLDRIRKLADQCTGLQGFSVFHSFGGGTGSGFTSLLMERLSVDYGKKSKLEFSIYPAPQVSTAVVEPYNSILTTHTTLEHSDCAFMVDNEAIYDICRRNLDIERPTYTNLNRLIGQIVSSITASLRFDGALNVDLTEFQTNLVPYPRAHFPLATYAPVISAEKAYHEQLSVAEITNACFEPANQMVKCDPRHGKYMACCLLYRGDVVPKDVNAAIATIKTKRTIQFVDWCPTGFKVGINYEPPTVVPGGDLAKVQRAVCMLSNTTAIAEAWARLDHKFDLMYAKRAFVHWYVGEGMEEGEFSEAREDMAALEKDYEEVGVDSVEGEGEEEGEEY
T1 sequence (P02554 whole entry): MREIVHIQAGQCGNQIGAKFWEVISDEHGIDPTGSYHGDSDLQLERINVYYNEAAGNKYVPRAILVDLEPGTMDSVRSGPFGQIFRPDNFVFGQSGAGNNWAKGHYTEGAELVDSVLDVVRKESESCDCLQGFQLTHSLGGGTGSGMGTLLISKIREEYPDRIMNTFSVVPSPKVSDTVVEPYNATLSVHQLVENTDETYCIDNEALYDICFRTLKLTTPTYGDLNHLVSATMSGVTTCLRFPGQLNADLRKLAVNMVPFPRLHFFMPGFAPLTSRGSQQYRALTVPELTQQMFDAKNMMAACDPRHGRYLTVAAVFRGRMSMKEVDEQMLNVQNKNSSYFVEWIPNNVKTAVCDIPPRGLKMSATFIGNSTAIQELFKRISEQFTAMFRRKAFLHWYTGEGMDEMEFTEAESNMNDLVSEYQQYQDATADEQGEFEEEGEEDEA

Compound	IC50 (HCT116 cells)	IC50 (tubulin)
Cc1cc(C(=O)N2CCN(c3cccc4ccccc34)CC2)n(-c2cccc(F)c2)n1 [3/20]	1850 nM	3000 nM
Cc1cc(C(=O)N2CCN(c3cc(Cl)ccc3C)CC2)n(-c2cccc(F)c2)n1 [3/21]	469 nM	1800 nM
Cc1cc(C(=O)N2CCN(c3cccc(C(F)(F)F)c3)CC2)n(-c2ccc(F)cc2)n1 [3/23]	434 nM	3000 nM
Cc1cc(C(=O)N2CCN(c3ccc(F)cc3)CC2)n(-c2cccc(Cl)c2)n1 [3/24]	239 nM	5000 nM
Cc1ccc(-n2nc(C)cc2C(=O)N2CCN(c3cccc(Cl)c3)CC2)cc1 [3/27]	217 nM	4500 nM
Cc1ccc(-n2nc(C)cc2C(=O)N2CCN(c3cccc(C)c3)CC2)cc1 [3/28]	269 nM	7000 nM
CCc1ccccc1N1CCN(C(=O)c2cc(C)nn2-c2cccc(C)c2)CC1 [3/29]	452 nM	5000 nM
Cc1cccc(-n2nc(C)cc2C(=O)N2CCN(c3ccc(C)c(C)c3)CC2)c1 [3/30]	729 nM	2900 nM
Cc1cccc(-n2nc(C)cc2C(=O)N2CCN(c3cccc4ccccc34)CC2)c1 [3/32]	556 nM	3000 nM
Cc1cc(C(=O)N2CCN(c3cc(Cl)ccc3C)CC2)n(-c2ccccc2)n1 [3/33]	170 nM	3000 nM
Cc1cc(C(=O)N2CCN(c3cccc(Cl)c3)CC2)n(-c2cccc(Cl)c2)n1 [3/34]	526 nM	2500 nM
COc1cccc(-n2nc(C)cc2C(=O)N2CCN(c3cccc(Cl)c3)CC2)c1 [3/35]	284 nM	5000 nM
Cc1cc(C(=O)N2CCN(c3cccc(Cl)c3)CC2)n(-c2ccccc2F)n1 [3/37]	1440 nM	20000 nM
Cc1cc(C(=O)N2CCN(c3cccc(Cl)c3)CC2)n(-c2ccc(F)cc2)n1 [3/38]	338 nM	6000 nM
Cc1cc(C(=O)N2CCN(c3ccccc3)CC2)n(-c2cccc(Cl)c2)n1 [3/40]	775 nM	3000 nM
Cc1cc(C(=O)N2CCN(c3ccc(F)cc3)CC2)n(-c2ccccc2)n1 [3/41]	294 nM	6500 nM

Compound	IC50 (HCT116 cells)	IC50 (tubulin)
CCOc1ccccc1N1CCN(C(=O)c2cc(C)nn2-c2ccccc2)CC1 [3/43]	229 nM	9000 nM
Cc1cccc(-n2nc(C)cc2C(=O)N2CCN(c3cccc(C(F)(F)F)c3)CC2)c1 [3/46]	197 nM	8000 nM
Cc1cccc(-n2nc(C)cc2C(=O)N2CCN(c3ccc(F)cc3)CC2)c1 [3/47]	312 nM	8000 nM
Cc1cccc(-n2nc(C)cc2C(=O)N2CCN(c3ccc(Cl)cc3)CC2)c1 [3/52]	256 nM	13000 nM
Cc1cccc(-n2nc(C)cc2C(=O)N2CCN(c3ccccc3C(F)(F)F)CC2)c1 [3/55]	1350 nM	5500 nM
CSc1ccccc1N1CCN(C(=O)c2cc(C)nn2-c2ccc(F)cc2)CC1 [3/58]	3940 nM	4500 nM
Cc1cc(C(=O)N2CCN(c3cccc4ccccc34)CC2)n(-c2ccc(F)cc2)n1 [3/59]	4980 nM	5700 nM
Cc1cc(C(=O)N2CCN(c3ccc(Cl)cc3)CC2)n(-c2cccc(Cl)c2)n1 [3/69]	347 nM	18000 nM
CCOc1ccccc1N1CCN(C(=O)c2cc(C)nn2-c2cccc(Cl)c2)CC1 [3/71]	220 nM	2500 nM
Cc1cc(C(=O)N2CCN(c3cccc(C(F)(F)F)c3)CC2)n(-c2ccc(Cl)cc2)n1 [3/72]	143 nM	7000 nM
Cc1cccc(N2CCN(C(=O)c3cc(C)nn3-c3ccc(Cl)cc3)CC2)c1 [3/74]	298 nM	7500 nM
COc1ccc(Cl)cc1N1CCN(C(=O)c2cc(C)nn2-c2ccc(Cl)cc2)CC1 [3/75]	468 nM	17000 nM
Cc1ccc(-n2nc(C)cc2C(=O)N2CCN(c3ccc(Cl)c(Cl)c3)CC2)cc1 [3/76]	1080 nM	3000 nM
COc1cccc(-n2nc(C)cc2C(=O)N2CCN(c3ccc(Cl)c(Cl)c3)CC2)c1 [3/81]	295 nM	3500 nM
Cc1cc(C(=O)N2CCN(c3ccccc3C(F)(F)F)CC2)n(-c2ccccc2)n1 [3/84]	176 nM	5500 nM
Cc1cc(C(=O)N2CCN(c3ccc(C)c(C)c3)CC2)n(-c2ccccc2F)n1 [3/86]	385 nM	12500 nM

The next lines start with the values.

IC50 (HCT116 cells)	IC50 (tubulin)	Compound
46 nM	1500 nM	COc1ccc(Cl)cc1N1CCN(C(=O)c2cc(C)nn2-c2cccc(F)c2)CC1 [3/22]
40 nM	1800 nM	COc1cccc(N2CCN(C(=O)c3cc(C)nn3-c3cccc(Cl)c3)CC2)c1 [3/25]
90 nM	1500 nM	CSc1ccccc1N1CCN(C(=O)c2cc(C)nn2-c2cccc(Cl)c2)CC1 [3/26]
140 nM	1300 nM	Cc1cccc(-n2nc(C)cc2C(=O)N2CCN(c3cccc(Cl)c3)CC2)c1 [3/31]
119 nM	1800 nM	Cc1cc(C(=O)N2CCN(c3cccc(Cl)c3Cl)CC2)n(-c2ccccc2)n1 [3/36]
85 nM	5000 nM	Cc1cc(C(=O)N2CCN(c3ccccc3C)CC2)n(-c2ccccc2)n1 [3/42]
47 nM	2000 nM	Cc1cccc(-n2nc(C)cc2C(=O)N2CCN(c3ccccc3)CC2)c1 [3/44]
73 nM	3000 nM	COc1ccccc1N1CCN(C(=O)c2cc(C)nn2-c2cccc(C)c2)CC1 [3/45]
118 nM	5000 nM	Cc1cccc(-n2nc(C)cc2C(=O)N2CCN(c3ccccc3C)CC2)c1 [3/48]
7.9 nM	1000 nM	COc1cccc(N2CCN(C(=O)c3cc(C)nn3-c3cccc(C)c3)CC2)c1 [3/49]
6.1 nM	1500 nM	Cc1cccc(N2CCN(C(=O)c3cc(C)nn3-c3cccc(C)c3)CC2)c1 [3/50]
37 nM	2000 nM	CSc1ccccc1N1CCN(C(=O)c2cc(C)nn2-c2cccc(C)c2)CC1 [3/51]
52 nM	1200 nM	Cc1cccc(-n2nc(C)cc2C(=O)N2CCN(c3cc(Cl)ccc3C)CC2)c1 [3/53]
117 nM	1000 nM	COc1ccc(Cl)cc1N1CCN(C(=O)c2cc(C)nn2-c2cccc(C)c2)CC1 [3/54]
139 nM	5000 nM	Cc1cccc(-n2nc(C)cc2C(=O)N2CCN(c3ccc4c(c3)OCCO4)CC2)c1 [3/56]
15 nM	1400 nM	Cc1cccc(N2CCN(C(=O)c3cc(C)nn3-c3ccc(F)cc3)CC2)c1 [3/57]
8.6 nM	1300 nM	COc1ccc(Cl)cc1N1CCN(C(=O)c2cc(C)nn2-c2ccc(F)cc2)CC1 [3/60]
71 nM	6000 nM	Cc1cc(C(=O)N2CCN(c3ccc4c(c3)OCCO4)CC2)n(-c2ccc(F)cc2)n1 [3/62]
19 nM	900 nM	COc1cccc(N2CCN(C(=O)c3cc(C)nn3-c3ccc(F)cc3)CC2)c1 [3/63]
73 nM	1300 nM	Cc1cc(C(=O)N2CCN(c3ccc(Cl)c(Cl)c3)CC2)n(-c2cccc(Cl)c2)n1 [3/65]
73 nM	2000 nM	Cc1cc(C(=O)N2CCN(c3ccc(C)c(C)c3)CC2)n(-c2cccc(Cl)c2)n1 [3/66]
127 nM	2700 nM	Cc1cc(C(=O)N2CCN(c3ccccc3C)CC2)n(-c2cccc(Cl)c2)n1 [3/67]
36 nM	1500 nM	CCc1ccccc1N1CCN(C(=O)c2cc(C)nn2-c2cccc(Cl)c2)CC1 [3/68]
111 nM	2500 nM	COc1cccc(N2CCN(C(=O)c3cc(C)nn3-c3ccc(Cl)cc3)CC2)c1 [3/73]
78 nM	5000 nM	COc1cccc(N2CCN(C(=O)c3cc(C)nn3-c3ccc(C)cc3)CC2)c1 [3/80]
8.3 nM	1200 nM	COc1cccc(N2CCN(C(=O)c3cc(C)nn3-c3cccc(OC)c3)CC2)c1 [3/82]
6.6 nM	1500 nM	COc1ccc(Cl)cc1N1CCN(C(=O)c2cc(C)nn2-c2ccccc2)CC1 [3/83]
